Measurements reported in US10597388B2, “Pyridazinone herbicides” (FMC CORPORATION, priority 2014, dated 2020).

Experiments:
Type in all cases: in vivo
corn (Zea mays) [1] = assay: Test A greenhouse herbicide test, pre- and postemergence; conditions: Postemergence
Method in brief: (§1)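 Seeds sown in loam–sand blend got a preemergence directed soil spray of compound in non-phytotoxic solvent with surfactant. Postemergence treatment was given at 2–10 cm, one- to two-leaf stage. After ~10 d in greenhouse, injury was rated visually vs untreated controls, 0 (no effect) to 100 (complete control).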

[2] = system: wheat (Triticum aestivum); assay: as above; conditions: Postemergence
Method in brief: as §1

[3] = system: ryegrass, Italian (Italian ryegrass, Lolium multiflorum); assay: as above
Method in brief: as §1

[4] = system: foxtail, giant (giant foxtail, Setaria faberii); assay: as above
Method in brief: as §1

[5] = system: nutsedge, yellow (yellow nutsedge, Cyperus esculentus); assay: Test C greenhouse herbicide test, pre- and postemergence
Method in brief: (§2)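 Preemergence: seeds sown in a loam soil–sand blend and sprayed with test chemicals in a non-phytotoxic solvent mixture containing surfactant. Postemergence: plants grown in peat-based medium and treated at 2 to 18 cm (1- to 4-leaf stage). After 13 to 15 d in a greenhouse, injury was visually rated 0–100 against controls.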

corn (Zea mays) [6] = assay: as above
Method in brief: as §2

[7] = system: pigweed (Amaranthus retroflexus); assay: as above
Method in brief: as §2

[8] = system: waterhemp (common waterhemp, Amaranthus rudis); assay: as above
Method in brief: as §2

soybean (Glycine max) = assay: as above
Method in brief: as §2

[9] = system: blackgrass (Alopecurus myosuroides); assay: as above
Method in brief: as §2

[10] = system: velvetleaf (Abutilon theophrasti); assay: as above
Method in brief: as §2

[11] = 125 g ai/ha, 0 to 100 scale where 0 is no effect and 100 is complete control
[12] = 500 g ai/ha, visual rating after approx. 10 d, 0 to 100 scale (0 no effect, 100 complete control)
[13] = Postemergence, 125 g ai/ha, 0 to 100 scale where 0 is no effect and 100 is complete control
[14] = Postemergence, 500 g ai/ha, visual rating after approx. 10 d, 0 to 100 scale (0 no effect, 100 complete control)
[15] = Preemergence, 125 g ai/ha, 0 to 100 scale where 0 is no effect and 100 is complete control
[16] = Preemergence, 500 g ai/ha, 0 to 100 scale where 0 is no effect and 100 is complete control
[17] = Postemergence, 31 g ai/ha, scale 0 to 100 (0 no effect, 100 complete control)
[18] = Postemergence, 62 g ai/ha, 0 to 100 scale (0 no effect, 100 complete control)
[19] = Postemergence, 250 g ai/ha, scale 0 to 100, 0 no effect, 100 complete control, 13 to 15 d
[20] = Preemergence, 31 g ai/ha, scale 0 to 100, 0 is no effect, 100 is complete control
[21] = Preemergence, 62 g ai/ha, scale 0 to 100, 0 is no effect, 100 is complete control
[22] = Preemergence, 125 g ai/ha, scale 0 to 100, 0 is no effect, 100 is complete control
[23] = Preemergence, 250 g ai/ha, scale 0 to 100, 0 no effect, 100 complete control
[24] = postemergence, 125 g ai/ha, scale 0 to 100, 0 no effect, 100 complete control

## CC(=O)Oc1c(C)nn(C)c(=O)c1-c1c(C)sc2ccc(C(F)(F)F)cc12 [Compound 132]
Corn (Zea mays) [1]; [11]
  Plant response rating, Corn: 0
Corn (Zea mays) [1]; [12]
  Plant response rating, Corn: 10
[2]; [11]
  Plant response rating, Wheat: 0
[2]; [12]
  Plant response rating, Wheat: 20
[3]; [13]
  Plant response rating, Ryegrass, Italian: 100
[3]; [14]
  Plant response rating, Ryegrass, Italian: 100
[3]; [15]
  Ryegrass, Italian plant response rating: 90
[3]; [16]
  Plant response rating, Ryegrass, Italian: 90
[4]; [13]
  Plant response rating, Foxtail, Giant: 60
[4]; [14]
  Plant response rating, Foxtail, Giant: 80
[4]; [15]
  Foxtail, Giant plant response rating: 70
[4]; [16]
  Plant response rating, Foxtail, Giant: 90
[5]; [17]
  Plant response rating, Nutsedge, Yellow: 30
[5]; [18]
  Nutsedge, Yellow plant response rating: 55
[5]; [19]
  Plant response rating, Nutsedge, Yellow: 85
[5]; [20]
  Plant response rating, Nutsedge, Yellow: 10
[5]; [21]
  Plant response rating, Nutsedge, Yellow: 35
[5]; [22]
  Plant response rating, Nutsedge, Yellow: 45
[5]; [23]
  Nutsedge, Yellow plant response rating: 75
[5]; [24]
  Nutsedge, Yellow plant response rating: 75
Corn (Zea mays) [6]; [17]
  Plant response rating, Corn: 0
Corn (Zea mays) [6]; [18]
  Corn plant response rating: 5
Corn (Zea mays) [6]; [19]
  Plant response rating, Corn: 10
Corn (Zea mays) [6]; [20]
  Plant response rating, Corn: 0
Corn (Zea mays) [6]; [21]
  Plant response rating, Corn: 0
Corn (Zea mays) [6]; [22]
  Plant response rating, Corn: 0
Corn (Zea mays) [6]; [23]
  Corn plant response rating: 10
Corn (Zea mays) [6]; [24]
  Corn plant response rating: 5
[7]; [17]
  Plant response rating, Pigweed: 50
[7]; [18]
  Pigweed plant response rating: 55
[7]; [19]
  Plant response rating, Pigweed: 65
[7]; [20]
  Plant response rating, Pigweed: 100
[7]; [21]
  Plant response rating, Pigweed: 100
[7]; [22]
  Plant response rating, Pigweed: 100
[7]; [23]
  Pigweed plant response rating: 100
[7]; [24]
  Pigweed plant response rating: 70
[8]; [17]
  Plant response rating, Waterhemp: 40
[8]; [18]
  Waterhemp plant response rating: 60
[8]; [19]
  Plant response rating, Waterhemp: 75
[8]; [20]
  Plant response rating, Waterhemp: 90
[8]; [21]
  Plant response rating, Waterhemp: 85
[8]; [22]
  Plant response rating, Waterhemp: 95
[8]; [23]
  Waterhemp plant response rating: 98
[8]; [24]
  Waterhemp plant response rating: 80
Soybean (Glycine max); [17]
  Plant response rating, Soybean: 0
Soybean (Glycine max); [18]
  Soybean plant response rating: 0
Soybean (Glycine max); [19]
  Plant response rating, Soybean: 20
Soybean (Glycine max); [20]
  Plant response rating, Soybean: 0
Soybean (Glycine max); [21]
  Plant response rating, Soybean: 0
Soybean (Glycine max); [22]
  Plant response rating, Soybean: 0
Soybean (Glycine max); [23]
  Soybean plant response rating: 0
Soybean (Glycine max); [24]
  Soybean plant response rating: 0
[9]; [17]
  Plant response rating, Blackgrass: 5
[9]; [18]
  Blackgrass plant response rating: 5
[9]; [19]
  Plant response rating, Blackgrass: 45
[9]; [20]
  Plant response rating, Blackgrass: 20
[9]; [21]
  Plant response rating, Blackgrass: 45
[9]; [22]
  Plant response rating, Blackgrass: 40
[9]; [23]
  Blackgrass plant response rating: 50
[9]; [24]
  Blackgrass plant response rating: 25
[10]; [17]
  Plant response rating, Velvetleaf: 30
[10]; [18]
  Velvetleaf plant response rating: 40
[10]; [19]
  Plant response rating, Velvetleaf: 75
[10]; [20]
  Plant response rating, Velvetleaf: 60
[10]; [21]
  Plant response rating, Velvetleaf: 60
[10]; [22]
  Plant response rating, Velvetleaf: 90
[10]; [23]
  Velvetleaf plant response rating: 95
[10]; [24]
  Velvetleaf plant response rating: 65
